# Where “and” joins values, the source holds several entries; their conditions need not be identical. Equal entries are not always repeated. Bridge positions count the residues as written; N and C are the ends. Peptide text beside a SMILES is read from it.
# How the values were obtained:
# [1] = test system: primary murine skin fibroblasts; assay: Insulin degradation in primary murine skin fibroblasts (ELISA of conditioned medium); format: cell-based; details: for Percent insulin remaining, Mean / Percent insulin remaining: P12-3A 100 uM, 100nM insulin added; for Percent insulin remaining, Mean: N 4; for Percent insulin remaining: conditioned medium, individual replicates
# Description: (§1) Insulin promotes wound healing and overall skin health by affecting a number of processes, including cell proliferation, cell migration, and the production and secretion of ECM components, particularly type I collagen. We therefore assessed the ability of P12-3A to influence these processes in cultured skin fibroblasts and keratinocytes. To that end, primary mouse skin fibroblasts were grown for 4 d in multiple concentrations of insulin in the presence or absence of P12-3A, and insulin concentration over time was monitored by ELISA. […] Finally, the effects of P12-3A on collagen production in were assessed at both the transcriptional and the posttranslational level in confluent monolayers of fibroblasts. After 4 d of treatment with P12-3A (100 μM), mRNA levels for the major form of collagen, alpha-1 type I collagen (COL1A1), were quantified by RT-PCR and found to be increased to ~2.6 times the levels of untreated cells (Fig 4C). To assess overall levels of collagen production and secretion, we quantified levels of hydroxyproline, a modified amino acid present almost exclusively in collagen proteins. […] Western blotting also confirmed that mature, cell-associated collagen levels were increased in the presence of P12-3A (Fig 4E).
# (§2) Fig 4 Effects of P12-3A on cultured skin cells. A, Insulin concentrations as a function of time in logarithmically growing primary murine skin fibroblasts in the absence or presence of P12-3A (100 μM). […] Data are mean ± SEM of 4 independent replications. *P<0.05, **P<0.01. B, Proliferation of cells in the absence or presence of P12-3A (100 μM). Data are mean ± SEM of 6 independent replications. […] C,D,E, P12-3A (100 μM) potentiates insulin-induced collagen production in skin fibroblasts. Collagen production was assessed by COL1A1 mRNA levels (C), levels of hydroxyproline secreted into the medium (D), and cell-associated mature alpha-1 type I collagen levels detected by Western blotting (E). Data are mean ± SD of 4 independent replications. *P<0.05, **P<0.01. […] Migration of HaCaT cells 48 h after induction of a scratch wound in the presence of the indicated quantities of insulin and/or P12-3A (100 μM). Data are mean ± SEM of 6 independent replications. *P<0.05, **P<0.01.
# (§3) IDE activity was quantified by monitoring the degradation of Mca-[…](Dnp) (FRET1, 5 μM), fluoresceinated and biotinylated amyloid ß-protein (FAßB; 500 nM) or recombinant human insulin (50 nM) in PBS supplemented with 0.05% BSA. FRET1 degradation was measured by changes in fluorescence (λex = 340 nm, λem = 420 nm); FAßB degradation was monitored by fluorescence polarization (λex = 488 nm, λem = 525 nm), as described; and insulin degradation was quantified by ELISA. In vitro activity assays incorporated recombinant human IDE (1 nM) purified from bacteria. For quantitation of insulin degradation in primary murine skin fibroblasts, cells (1 x 10^5/well) were plated in 96-well plates and maintained in DMEM supplemented with 10% fetal bovine serum (FBS), 2mM glutamine, penicillin and streptomycin. After addition of insulin (10 nM or 100 nM), samples of conditioned medium were removed daily and quickly frozen, then insulin levels were quantified in parallel by ELISA according to manufacturer’s recommendations (Crystal Chem, Downers Grove, IL, USA). Assessment of the activity of P12-3A against a variety of matrix-metalloproteases was conducted using the Matrix Metalloproteinase (MMP) Inhibitor Profiling Kit, Fluorometric RED (Enzo Life Sciences, Inc., Farmingdale, NY, USA) according to manufacturer’s recommendations using the broad-spectrum MMP inhibitor, NNGH, as a positive control.
# HaCaT cells = assay: In vitro scratch wound migration assay; format: cell-based; details: for migration of keratinocytes, single replicates (average of two observers) / migration of keratinocytes, Mean: 48 hr after scratching; for migration of keratinocytes, Mean: N 6
# Description: as §1, §2
# Cell migration in HaCaT cells after induction of scratch wounds was quantified essentially as described. Briefly, HaCaT cells maintained in optimized DMEM (AddexBio Technologies, San Diego, CA, USA) supplemented with 10% FBS, penicillin and streptomycin, were grown to confluency in 24-well tissue culture plates, and scratch wounds were induced with a 200-μL pipette tip. After growth for 48 h in the absence or presence of insulin (10 nM or 100 nM) and/or P12-3A (100 μM), cell migration distance was quantified by two independent, blinded observers using a Nikon TMS inverted light microscope (Nikon Corp., Melville, NY, USA) fitted with a ruler reticle.
# [2] = test system: multiple matrix-metalloproteases (MMPs); assay: Matrix Metalloproteinase (MMP) Inhibitor Profiling Kit, Fluorometric RED; format: biochemical; design: % activity relative to DMSO-only controls, single runs / % activity relative to DMSO-only controls, Mean: concentration or dose not given beside the values; details: for % activity relative to DMSO-only controls, single runs: each run mean of duplicates
# Description: as §3
# Supplementary file pone.0193101.s004.tif: S4 Fig Selectivity of P12-3A for IDE vis-à-vis other proteases. Activity of P12-3A (100 μM) against (A) multiple matrix-metalloproteases (MMPs) and (B) multiple peptidases of different protease classes. […] Data are mean ± SD, n = 8–16 per group. P<0.05 by 2-tailed Student’s t-test. […] See Materials and Methods for details. NEP, neprilysin; mCatD, murine cathepsin D; hCatD, human cathepsin D. (TIF) Click here for additional data file.
# 15 different proteases = assay: Selectivity against 15 different proteases (S4 Fig); format: biochemical; details: P12-3A 100 μM
# Description: Taken together with the potency of all peptides against insulin (Table 1), we concluded that P12-3A represented the best inhibitor for further studies, and a highly purified, deliberately cyclized version (Fig 3A) was synthesized. […] Based on its potency, stability and selectivity for IDE, P12-3A was selected for use in downstream assays.
# as §3, with “Assessment of the activity of P12-3A against a variety of matrix-metalloproteases was conducted using the Matrix Metalloproteinase (MMP) Inhibitor Profiling Kit, Fluorometric RED (Enzo Life Sciences, Inc., Farmingdale, NY, USA) according to manufacturer’s recommendations using the broad-spectrum MMP inhibitor, NNGH, as a positive control.” left out
compound,measurement,setting,value
CC(C)C[C@H](NC(=O)[C@H](CO)NC(=O)[C@@H](N)CCC(N)=O)C(=O)N1CCC[C@H]1C(=O)N[C@@H](Cc1c[nH]c2ccccc12)C(=O)N[C@H]1CSSC[C@@H](C(=O)N[C@H](C(=O)N[C@H](C(N)=O)[C@@H](C)O)C(C)C)NC(=O)[C@H](Cc2c[nH]cn2)NC(=O)[C@@H]2CCCN2C(=O)[C@H](Cc2ccc(O)cc2)NC1=O [P12-3A] (H-QSLPWCYPHCVT-NH2; disulfide 6-10 (inferred)),insulin levels over time in cells,"[1]; 100 μM P12-3A, 10 nM insulin, up to day 4, logarithmically growing cells",remain constant
same,"Percent insulin remaining, Mean",[1]; t 0 d,100.0%
same,Percent insulin remaining,[1]; t 0 d,85.1403% and 114.724% and 102.178% and 97.9576%
same,"Percent insulin remaining, Mean",[1]; t 1 d,102.0%
same,Percent insulin remaining,[1]; t 1 d,95.514% and 88.3018% and 126.115% and 98.0694%
same,"Percent insulin remaining, Mean",[1]; t 2 d,97.0%
same,Percent insulin remaining,[1]; t 2 d,100.082% and 83.3067% and 102.861% and 101.75%
same,"Percent insulin remaining, Mean",[1]; t 3 d,91.0%
same,Percent insulin remaining,[1]; t 3 d,84.576% and 69.9969% and 96.4916% and 112.935%
same,"Percent insulin remaining, Mean",[1]; t 4 d,96.0%
same,Percent insulin remaining,[1]; t 4 d,100.148% and 97.4317% and 103.413% and 83.0078%
same,"migration of keratinocytes, single replicates (average of two observers)",HaCaT cells; 10 nM ins,10.5 mm and 10.6 mm and 10.1 mm and 8.4 mm and 4.9 mm and 12.6 mm
same,"migration of keratinocytes, Mean",HaCaT cells; 10 nM ins,9.5 mm
same,"migration of keratinocytes, single replicates (average of two observers)",HaCaT cells; 100 nM ins,10.1 mm and 11.5 mm and 16.4 mm and 11.4 mm and 14.4 mm and 18.1 mm
same,"migration of keratinocytes, Mean",HaCaT cells; 100 nM ins,13.6 mm
same,migration of keratinocytes,"HaCaT cells; 100 μM P12-3A, different concentrations of insulin, 48 h",statistically significant increases
same,"migration of keratinocytes, single replicates (average of two observers)",HaCaT cells; no ins,5.0 mm and 5.9 mm and 3.4 mm and 8.3 mm and 3.2 mm and 4.0 mm
same,"migration of keratinocytes, Mean",HaCaT cells; no ins,4.9 mm
same,"% activity relative to DMSO-only controls, Mean",[2]; MMP-1,87%
same,"% activity relative to DMSO-only controls, single runs",[2]; MMP-1,105.8321% and 102.1980% and 83.6377% and 95.1040% and 96.8615% and 66.9344% and 67.7846% and 75.7623%
same,"% activity relative to DMSO-only controls, Mean",[2]; MMP-2,101%
same,"% activity relative to DMSO-only controls, single runs",[2]; MMP-2,134.1641% and 93.5356% and 119.9423% and 88.3713% and 112.6968% and 77.2842% and 100.8622% and 77.2868%
same,"% activity relative to DMSO-only controls, Mean",[2]; MMP-3,93%
same,"% activity relative to DMSO-only controls, single runs",[2]; MMP-3,94.6432% and 93.2955% and 89.9170% and 91.8916% and 91.6457% and 97.0044% and 92.2721% and 90.5895%
same,"% activity relative to DMSO-only controls, Mean",[2]; MMP-8,114%
same,"% activity relative to DMSO-only controls, single runs",[2]; MMP-8,99.7304% and 123.9354% and 116.1961% and 104.6766% and 117.7573% and 98.6189% and 113.4567% and 134.2719%
same,"% activity relative to DMSO-only controls, Mean",[2]; MMP-9,96%
same,"% activity relative to DMSO-only controls, single runs",[2]; MMP-9,99.3059% and 91.4690% and 98.9883% and 93.1451% and 94.2109% and 106.2066% and 100.0306% and 85.1586%
same,"% activity relative to DMSO-only controls, Mean",[2]; MMP-12,89%
same,"% activity relative to DMSO-only controls, single runs",[2]; MMP-12,81.7387% and 84.5842% and 96.0954% and 81.6283% and 94.7460% and 96.1245% and 93.1866% and 82.8317%
same,"% activity relative to DMSO-only controls, Mean",[2]; MMP-13,97%
same,"% activity relative to DMSO-only controls, single runs",[2]; MMP-13,85.9593% and 124.8564% and 91.0861% and 131.0115% and 78.1511% and 84.2743% and 87.8510% and 91.4553%
same,"% activity relative to DMSO-only controls, Mean",[2]; MMP-14,117%
same,"% activity relative to DMSO-only controls, single runs",[2]; MMP-14,110.7407% and 115.7751% and 123.1998% and 129.5171% and 110.1580% and 106.8971% and 114.7013% and 125.4828%
same,"% activity relative to DMSO-only controls, Mean",[2]; MMP-19,92%
same,"% activity relative to DMSO-only controls, single runs",[2]; MMP-19,98.6000% and 87.1925% and 92.0753% and 96.2890% and 86.4215% and 92.6495% and 89.4846% and 96.8071%
same,inhibition against 15 different proteases,15 different proteases,essentially no inhibition
